Experimental findings from patent US9072758B2, “Cyclic amide derivative” (MOCHIDA PHARMACEUTICAL CO., LTD., priority 2011, dated 2015) are described below.

A word on the EC50: it is the concentration giving half of the maximal effect.

The assay deals with T1, GPR40 of human origin (Homo sapiens, UniProt O14842).
T1 construct: expressed in transfected cells
In words: Agonist action on GPR40 of human origin (Ca2+ fluctuation in a CHO cell strain stably expressing GPR40). It is filed as cell-based. Conditions: Calcium 4 Assay Kit, fluorescence intensity variation. The method, then:
A CHO cell strain stably expressing GPR40 of human origin was used to determine the agonist action of a title compound. This cell strain was seeded in a clear bottom 96 well plate at 2×10^4 cells/100 μL/well. The cell strain was cultured in a CO2 incubator overnight using a Ham's F-12 medium containing a 10% fetal bovine serum, 100 U/mL penicillin, 0.1 mg/mL streptomycin, and 400 μg/mL Geneticin. Calcium 4 Assay Kit (Molecular Devices) was used as a fluorescent calcium indicator. One mL of 77 mg/mL probenecid (Invitrogen) was added to 100 mL of a calcium indicator solution to prepare a solution (loading solution) mixed with a 20 mM HEPES-containing Hanks' balanced salt solution (HBSS) in equal proportions. To the cells from which the culture solution was removed, 200 μL of the loading solution was added, and the cells were cultured in a CO2 incubator for 1 hour. The title compound was diluted with a 20 mM HEPES-containing HBSS and was added to the cells by 50 μL, and the fluctuation of the Ca^2+ concentration was measured by an intracellular ion analyzer. The EC50 value of the title compound was calculated using the dose-response curve of fluorescence intensity variation.

T1 sequence (O14842 whole entry): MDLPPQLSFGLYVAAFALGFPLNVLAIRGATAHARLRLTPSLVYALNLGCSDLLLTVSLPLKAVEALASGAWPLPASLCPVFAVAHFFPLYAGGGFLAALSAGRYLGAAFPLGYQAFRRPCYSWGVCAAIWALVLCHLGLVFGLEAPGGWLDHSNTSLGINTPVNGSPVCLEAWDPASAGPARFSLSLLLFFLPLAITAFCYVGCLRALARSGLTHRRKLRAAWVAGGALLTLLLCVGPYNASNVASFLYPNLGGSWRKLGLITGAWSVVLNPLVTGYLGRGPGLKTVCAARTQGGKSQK

As to `Cc1nc(OCCC(C)(C)O)ccc1-c1cccc2c1CC[C@H]2Oc1ccc(C2CC(=O)N[S+]2[O-])cc1` (single isomer, unassigned) [23(A)-a], the EC50 was less than 300 nM.

`N#Cc1ccc(Oc2cccc3c2CC[C@H]3Oc2ccc(C3CC(=O)N[S+]3[O-])cc2)cc1` (single isomer, unassigned) [25(A)-b]: the EC50 is less than 300 nM.

`Cc1nc(OCCC(C)(C)O)ccc1Oc1cccc2c1CC[C@H]2Oc1ccc(C2CC(O)=N[S+]2[O-])cc1` (single isomer, unassigned) [51(A)-a]: the EC50 was less than 300 nM.

Take `Cc1nc(OCCC(C)(C)O)ccc1Oc1cccc2c1CC[C@H]2Oc1ccc(C2CC(O)=N[S+]2[O-])cc1` (single isomer, unassigned) [51(A)-b]: the EC50 was less than 300 nM.

On to `COc1ccc(Oc2cccc3c2CC[C@H]3Oc2ccc(C3CC(O)=N[S+]3[O-])cc2)cn1` (single isomer, unassigned) [52(A)-a], for which the EC50 was less than 300 nM.

`COc1ccc(Oc2cccc3c2CC[C@H]3Oc2ccc(C3CC(O)=N[S+]3[O-])cc2)cn1` (single isomer, unassigned) [52(A)-b]: the EC50 was less than 300 nM.

For the compound `Cc1cccc(Oc2cccc3c2CC[C@H]3Oc2ccc(C3CC(O)=N[S+]3[O-])cc2)c1` (single isomer, unassigned) [53(A)-a], the EC50 is less than 300 nM.

For the compound `Cc1cccc(Oc2cccc3c2CC[C@H]3Oc2ccc(C3CC(O)=N[S+]3[O-])cc2)c1` (single isomer, unassigned) [53(A)-b], the concentration for a half-maximal effect (EC50) was less than 300 nM.

On to `CCOCCOc1ccc(-c2cccc3c2CC[C@H]3Oc2ccc(C3CC(O)=N[S+]3[O-])cc2)c(C)n1` (single isomer, unassigned) [54(A)-a], for which the EC50 was less than 300 nM.

Consider `CCOCCOc1ccc(-c2cccc3c2CC[C@H]3Oc2ccc(C3CC(O)=N[S+]3[O-])cc2)c(C)n1` (single isomer, unassigned) [54(A)-b], for which the concentration giving a half-maximal response (EC50) is less than 300 nM.

For `Cc1ncccc1Oc1cccc2c1CC[C@H]2Oc1ccc(C2CC(O)=N[S+]2[O-])cc1` (single isomer, unassigned) [55(A)-a], the EC50 is less than 300 nM.

As for `Cc1ncccc1Oc1cccc2c1CC[C@H]2Oc1ccc(C2CC(O)=N[S+]2[O-])cc1` (single isomer, unassigned) [55(A)-b], the EC50 was less than 300 nM.

As for `CCOCCOc1cc(C)c(-c2cccc3c2CC[C@H]3Oc2ccc(C3CC(O)=N[S+]3[O-])cc2)c(C)c1` (single isomer, unassigned) [Example 57], the half-maximal effective concentration (EC50) is less than 300 nM.

As for `CCOCCOc1cc(C)c(-c2cccc3c2CC[C@H]3Oc2ccc(C3CC(O)=N[S+]3[O-])cc2)c(C)c1` (single isomer, unassigned) [Example 58], the EC50 is less than 300 nM.

With `Cc1cc(OCCCS(C)(=O)=O)cc(C)c1-c1cccc2c1CC[C@H]2Oc1ccc(C2CC(=O)N[S+]2[O-])cc1` (single isomer, unassigned) [Example 59], the EC50 is less than 300 nM.

In the case of `Cc1cccc(C)c1-c1cccc2c1CC[C@H]2Oc1ccc(C2CC(O)=N[S+]2[O-])cc1` (single isomer, unassigned) [Example 60], the half-maximal effective concentration (EC50) is less than 300 nM.

As to `COc1cc(C)c(-c2cccc3c2CC[C@H]3Oc2ccc(C3CC(O)=N[S+]3[O-])cc2)c(C)c1` (single isomer, unassigned) [Example 61], the EC50 was less than 300 nM.

In the case of `Cc1nc(OCCCS(C)(=O)=O)ccc1-c1cccc2c1CC[C@H]2Oc1ccc(C2CC(O)=N[S+]2[O-])cc1` (single isomer, unassigned) [Example 62], the EC50 was less than 300 nM.

For the compound `COc1ccc(-c2cccc3c2CC[C@H]3Oc2ccc(C3CC(O)=N[S+]3[O-])cc2)c(C)n1` (single isomer, unassigned) [Example 63], the EC50 is less than 300 nM.

With `[O-][S+]1N=C(O)CC1c1ccc(O[C@@H]2CCc3c(-c4ccccc4C(F)(F)F)cccc32)cc1` (single isomer, unassigned) [Example 64], the EC50 is less than 300 nM.

As to `[O-][S+]1N=C(O)CC1c1ccc(O[C@@H]2CCc3c(-c4cccnc4C(F)(F)F)cccc32)cc1` (single isomer, unassigned) [Example 65], the EC50 is less than 300 nM.

For the compound `Cc1ccccc1-c1cccc2c1CC[C@H]2Oc1ccc(C2CC(O)=N[S+]2[O-])cc1` (single isomer, unassigned) [Example 66], the EC50 was less than 300 nM.

As to `Cc1ccc(F)cc1-c1cccc2c1CC[C@H]2Oc1ccc(C2CC(O)=N[S+]2[O-])cc1` (single isomer, unassigned) [Example 67], the EC50 was less than 300 nM.

`COc1cccc(F)c1-c1cccc2c1CC[C@H]2Oc1ccc(C2CC(O)=N[S+]2[O-])cc1` (single isomer, unassigned) [Example 68]: the EC50 is less than 300 nM.

For the compound `CCOc1ccc(F)cc1-c1cccc2c1CC[C@H]2Oc1ccc(C2CC(O)=N[S+]2[O-])cc1` (single isomer, unassigned) [Example 69], the EC50 was less than 300 nM.

For `Cc1nc(OCCC(C)(C)O)ccc1-c1cccc2c1CC[C@H]2Oc1ccc(C2CC(=O)NS(=O)(=O)C2)cc1` (stereo partly drawn) [Example 36, 5-(4-(((R)-4-(6-(3-hydroxy-3-methylbutoxy)-2-methylpyridin-3-yl)-2,3-dihydro-1H-inden-1-yl)oxy)phenyl)-1,2-thiazinan-3-one 1,1-dioxide], the EC50 is less than 300 nM.

As to `Cc1cccc(C)c1-c1cccc2c1CC[C@H]2Oc1ccc(C2CC(=O)NS(=O)(=O)C2)cc1` (stereo partly drawn) [Example 37, 5-(4-(((R)-4-(2,6-dimethylphenyl)-2,3-dihydro-1H-inden-1-yl)oxy)phenyl)-1,2-thiazinan-3-one 1,1-dioxide], the EC50 is less than 300 nM.

On to `O=C1CC(c2ccc(O[C@@H]3CCc4c(-c5ccccc5C(F)(F)F)cccc43)cc2)CS(=O)(=O)N1` (stereo partly drawn) [Example 38, 5-(4-(((R)-4-(2-(trifluoromethyl)phenyl)-2,3-dihydro-1H-inden-1-yl)oxy)phenyl)-1,2-thiazinan-3-one 1,1-dioxide], for which the concentration for a half-maximal effect (EC50) is less than 300 nM.

Regarding `CCOCCOc1cc(C)c(-c2cccc3c2CC[C@H]3Oc2ccc(C3CC(=O)NS(=O)(=O)C3)cc2)c(C)c1` (stereo partly drawn) [Example 39, 5-(4-(((R)-4-(4-(2-ethoxyethoxy)-2,6-dimethylphenyl)-2,3-dihydro-1H-inden-1-yl)oxy)phenyl)-1,2-thiazinan-3-one 1,1-dioxide], the EC50 is less than 300 nM.

Take `CCOCCOc1cc(C)c(-c2cccc3c2CC[C@H]3Oc2ccc(C3CC(=O)NS(=O)(=O)C3)cc2)c(C)c1` (stereo partly drawn) [Example 42, 5-(4-(((R)-4-(4-(2-ethoxyethoxy)-2,6-dimethylphenyl)-2,3-dihydro-1H-inden-1-yl)oxy)phenyl)-1,2-thiazinan-3-one 1,1-dioxide]: the EC50 is less than 300 nM.

`Cc1cccc(C)c1-c1cccc2c1CC[C@H]2Oc1ccc(C2CC(=O)NS(=O)(=O)C2)cc1` (stereo partly drawn) [Example 43, 5-(4-(((R)-4-(2,6-dimethylphenyl)-2,3-dihydro-1H-inden-1-yl)oxy)phenyl)-1,2-thiazinan-3-one 1,1-dioxide]: the EC50 is less than 300 nM.

As for `O=C1CC(c2ccc(O[C@@H]3CCc4c(-c5ccccc5C(F)(F)F)cccc43)cc2)CS(=O)(=O)N1` (stereo partly drawn) [Example 44, 5-(4-(((R)-4-(2-(trifluoromethyl)phenyl)-2,3-dihydro-1H-inden-1-yl)oxy)phenyl)-1,2-thiazinan-3-one 1,1-dioxide], the EC50 is less than 300 nM.

`Cc1cc(OCCCS(C)(=O)=O)cc(C)c1-c1cccc2c1CC[C@H]2Oc1ccc(C2CC(=O)NS(=O)(=O)C2)cc1` (stereo partly drawn) [Example 45, 5-(4-(((R)-4-(2,6-dimethyl-4-(3-(methylsulfonyl)propoxy)phenyl)-2,3-dihydro-1H-inden-1-yl)oxy)phenyl)-1,2-thiazinan-3-one 1,1-dioxide]: the concentration giving a half-maximal response (EC50) was less than 300 nM.

`COc1cc(C)c(-c2cccc3c2CC[C@H]3Oc2ccc(C3CC(=O)NS(=O)(=O)C3)cc2)c(C)c1` (stereo partly drawn) [Example 46, 5-(4-(((R)-4-(4-methoxy-2,6-dimethylphenyl)-2,3-dihydro-1H-inden-1-yl)oxy)phenyl)-1,2-thiazinan-3-one 1,1-dioxide]: the EC50 is less than 300 nM.

Take `Cc1cc(O[C@@H]2CCc3c(-c4c(C)cc(OCCC(C)(C)O)cc4C)cccc32)ccc1C1CC(=O)NS(=O)(=O)C1` (stereo partly drawn) [Example 47, 5-(4-(((R)-4-(4-(3-hydroxy-3-methylbutoxy)-2,6-dimethylphenyl)-2,3-dihydro-1H-inden-1-yl)oxy)-2-methylphenyl)-1,2-thiazinan-3-one 1,1-dioxide]: the EC50 was less than 300 nM.

Turning to `O=C1CC(c2ccc(O[C@@H]3CCc4c(Oc5ccccc5)cccc43)cc2)CS(=O)(=O)N1` (stereo partly drawn) [Example 48, 5-(4-(((R)-4-phenoxy-2,3-dihydro-1H-inden-1-yl)oxy)phenyl)-1,2-thiazinan-3-one 1,1-dioxide], the concentration giving a half-maximal response (EC50) was less than 300 nM.

Take `O=C1CC(c2ccc(O[C@@H]3CCc4c(Oc5ccccc5)cccc43)cc2)CS(=O)(=O)N1` (stereo partly drawn) [Example 49, 5-(4-(((R)-4-phenoxy-2,3-dihydro-1H-inden-1-yl)oxy)phenyl)-1,2-thiazinan-3-one 1,1-dioxide (C)]: the EC50 is less than 300 nM.
